Consider 12 compounds from paper PMC11345399 (The Journal of Biological Chemistry, 2024).

The subject of data set [1] is Nc1ncnc2c1ncn2[C@@H]1O[C@H](COP(=O)(O)OP(=O)(O)OP(=O)(O)O)[C@@H](O)[C@H]1O. As to the kind of experiment: purified protein, by the assay type. The conditions noted are these: pH 8.0.
The subject of data set [2] is N#C[C@@]1(c2ccc3c(N)ncnn23)O[C@H](COP(=O)(O)OP(=O)(O)OP(=O)(O)O)[C@@H](O)[C@H]1O. As to the kind of experiment: purified protein, by the assay type. The conditions noted are these: pH 8.0.
The target in data set [3] is MERS-CoV RdRp (Middle East respiratory syndrome-related coronavirus, UniProt K9N7C7). In kind it is biochemical.
Data set [4] deals with RSV RdRp (Human respiratory syncytial virus A, UniProt P28887). In kind it is biochemical.
The target of data set [5] is T1, HRV-16 RdRp (Human rhinovirus 16, UniProt Q82122). The class given is biochemical.
Data set [6] deals with EV-71 RdRp. The class given is biochemical.
The target of data set [7] is HPIV-3 RdRp (Human parainfluenza 3 virus, UniProt P12577). In kind it is biochemical.
Data set [8] deals with PIV-5 RdRp (Parainfluenza virus 5, UniProt Q88434). In kind it is biochemical.
Data set [9] addresses HMPV RdRp (Human metapneumovirus, UniProt Q6WB93). In kind it is biochemical.
In data set [10] the target is HRV-16 RdRp (3Dpol) (Human rhinovirus 16, UniProt Q82122).
Data set [11] has as its target T2, MERS-CoV RdRp complex (Middle East respiratory syndrome-related coronavirus, UniProt K9N7C7). The settings on record: cited from earlier work.
Data set [12] addresses T3, human mitochondrial RNA polymerase (h-mtRNAP) (Homo sapiens, UniProt O00411). The conditions noted are these: cited from earlier work.
Data set [13] deals with T4, RSV RdRp complex (Human respiratory syncytial virus A, UniProt P28887).
In data set [14] the target is HPIV-3 RdRp complex (Human parainfluenza 3 virus, UniProt P12577).
Data set [15] addresses T5, influenza B RdRp (Influenza B virus, UniProt Q5V8Y6). The class given is biochemical.
In data set [16] the target is T6, LASV RdRp (Mammarenavirus lassaense, UniProt Q6GWS2).
In data set [17] the target is T2, MERS-CoV RdRp complex.
In data set [18] the target is T3, human mitochondrial RNA polymerase (h-mtRNAP). In kind it is biochemical.
The target of data set [19] is T5, influenza B RdRp. The conditions noted are these: cited from earlier work.
Data set [20] concerns the target HMPV RdRp complex (Human metapneumovirus, UniProt Q6WB93).
In data set [21] the target is T7, SARS-CoV-2 RdRp complex (Severe acute respiratory syndrome coronavirus 2, UniProt P0DTD1). The settings on record: cited from earlier work; for Km: previously reported.
Data set [22] addresses EV-71 RdRp (3Dpol) (Enterovirus A71, UniProt E5RPG3).
Data set [23] relates to SARS-CoV RdRp complex. The settings on record: cited from earlier work.
Data set [24] deals with T6, LASV RdRp. The conditions noted are these: cited from earlier work.
The target in data set [25] is PIV-5 RdRp complex (Parainfluenza virus 5, UniProt Q88434).
The target of data set [26] is T4, RSV RdRp complex. The conditions noted are these: cited from earlier work.
For data set [27], the system named is EV-71 RdRp. In kind it is biochemical. The source holds these as a separate data set.
Data set [28] concerns the target T1, HRV-16 RdRp. The class given is biochemical. The source holds these as a separate data set.
The target of data set [29] is SARS-CoV-2 RdRp (Severe acute respiratory syndrome coronavirus 2, UniProt P0DTD1). In kind it is biochemical.
The target of data set [30] is T7, SARS-CoV-2 RdRp complex.
The mark [31] stands for this setting: SARS-CoV-2 RdRp, ref Gordon et al. ([45]).

Several values for one entry are separate records, joined by “and”; a condition that tells them apart may be missing. Equal values may be shown once. Read-outs that look alike come from different tables or passages of the source. Marks after values point to notes of the source that are not given here.

T3 sequence (O00411 42-1230 limits assumed): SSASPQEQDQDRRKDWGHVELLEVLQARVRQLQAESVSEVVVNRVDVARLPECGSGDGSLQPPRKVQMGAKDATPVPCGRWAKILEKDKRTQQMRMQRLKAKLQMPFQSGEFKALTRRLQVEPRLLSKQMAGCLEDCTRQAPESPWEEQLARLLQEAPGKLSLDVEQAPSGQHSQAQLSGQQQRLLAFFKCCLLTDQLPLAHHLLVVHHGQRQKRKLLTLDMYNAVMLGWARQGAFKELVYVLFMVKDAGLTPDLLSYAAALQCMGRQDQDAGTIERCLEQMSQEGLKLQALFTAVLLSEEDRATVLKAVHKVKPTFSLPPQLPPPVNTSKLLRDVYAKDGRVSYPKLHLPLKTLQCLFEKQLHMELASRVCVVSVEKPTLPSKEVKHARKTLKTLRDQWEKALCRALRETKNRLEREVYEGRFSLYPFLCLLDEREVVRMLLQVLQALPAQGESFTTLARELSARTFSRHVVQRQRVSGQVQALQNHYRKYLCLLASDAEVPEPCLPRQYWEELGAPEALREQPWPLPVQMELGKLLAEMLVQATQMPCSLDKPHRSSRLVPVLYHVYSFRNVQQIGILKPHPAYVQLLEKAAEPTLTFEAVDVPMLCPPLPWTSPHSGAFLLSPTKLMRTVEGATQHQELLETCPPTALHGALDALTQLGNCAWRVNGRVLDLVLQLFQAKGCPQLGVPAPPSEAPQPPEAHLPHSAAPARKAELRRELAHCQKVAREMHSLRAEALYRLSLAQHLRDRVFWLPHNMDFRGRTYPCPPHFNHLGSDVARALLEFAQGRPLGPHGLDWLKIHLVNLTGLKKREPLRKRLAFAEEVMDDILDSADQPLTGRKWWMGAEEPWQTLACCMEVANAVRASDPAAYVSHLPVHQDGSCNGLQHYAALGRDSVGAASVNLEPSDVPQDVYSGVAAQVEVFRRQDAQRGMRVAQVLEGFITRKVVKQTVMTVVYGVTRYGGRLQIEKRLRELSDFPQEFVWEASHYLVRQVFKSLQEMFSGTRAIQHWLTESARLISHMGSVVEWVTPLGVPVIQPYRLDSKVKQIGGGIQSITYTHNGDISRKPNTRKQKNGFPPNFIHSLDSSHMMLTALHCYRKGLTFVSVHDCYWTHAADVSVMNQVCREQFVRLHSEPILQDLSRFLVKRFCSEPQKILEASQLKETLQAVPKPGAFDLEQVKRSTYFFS

By Km is commonly meant the concentration of substrate that gives half-maximal velocity. With “MERS-CoV RdRp complex (Betacoronavirus England 1)”, the Km in [1] is listed as 0.032 ± 0.0014 µM.
Consider EV-71 RdRp (3Dpol) (Enterovirus A71), for which the Km in data set [2] is on record as 0.86 ± 0.081 µM; in data set [1] it was 0.96 ± 0.066 µM.
“HMPV RdRp complex (Human metapneumovirus CAN97-83)”: the Km in data set [2] was 42.19 ± 7.79 µM.
As for “HPIV-3 RdRp complex (Human parainfluenza 3 virus (strain NIH 47885))”, the Km in [2] is 0.44 ± 0.040 µM; in data set [1] it was 0.061 ± 0.015 µM.
For the compound “PIV-5 RdRp complex (Simian virus 5 (strain W3))”, the Km in data set [2] is given as 13 ± 2.3 µM; in data set [1] it was 1.5 ± 0.25 µM.
For LASV RdRp (Lassa virus Josiah), the Km in data set [1] came to 0.39 ± 0.075 µM.
Still for that read-out and setting: next, “SARS-CoV-2 RdRp complex (Severe acute respiratory syndrome coronavirus 2)”: 0.057 ± 0.0078 µM.
As to AMP, the “Vmax (product fraction) of UTP incorporation at i + 1” value (“Vmax (product fraction) … at i + 1” below) in data set [3] turned out to be 1.03 ± 0.016; in data set [4], 0.70 ± 0.037; in data set [5], 0.76 ± 0.015; in data set [6] it was 0.65 ± 0.003; in data set [7] it was 0.56 ± 0.0097; in data set [8], 0.51 ± 0.022. The “Vmax (product fraction) … at i + 1” value in data set [9] was 0.48 ± 0.026.
Consider `Nc1ncnc2c1ncn2[C@@H]1O[C@H](COP(=O)(O)OP(=O)(O)OP(=O)(O)O)[C@@H](O)[C@H]1O` [ATP], for which the “Vmax (product fraction)” value in data set [10] is recorded as 0.90 ± 0.017; in [11] it was 0.47 ± 0.011; in data set [12], 0.98 ± 0.018; in [13], 0.61 ± 0.065; in data set [14], 0.63 ± 0.025; in data set [15], 0.68 ± 0.014. Also, the “Vmax (product fraction)” value was 0.80 ± 0.0037 in data set [16]; 0.84 ± 0.0090 in [17]; 0.93 ± 0.026 in data set [18]; 0.73 ± 0.014 in data set [19]; 0.60 ± 0.024 and 0.39 ± 0.028 in [20]; 0.96 ± 0.021 in data set [22]. Moreover, the “Vmax (product fraction)” value in [23] was 0.73 ± 0.017; in data set [24], 0.57 ± 0.032; in [25], 0.74 ± 0.026; in data set [26] it was 0.76 ± 0.022. Further, the Km is 0.017 ± 0.019 µM in data set [11]; 0.05 ± 0.0037 µM in data set [12]; 0.096 ± 0.0091 µM in data set [18]; 0.03 ± 0.003 µM in [21] (setting [31]); 0.03 ± 0.003 µM in [23]; 0.11 ± 0.02 µM in [24]. The Km in data set [26] is 0.17 ± 0.023 µM.
On to “RSV RdRp complex (Human respiratory syncytial virus A2)”, for which the Km in [1] came out at 0.97 ± 0.36 µM.
In the case of HRV-16 RdRp (3Dpol) (rhinovirus A16), the results for the Km in data set [2] and in data set [1] were 4.96 ± 0.27 µM and 4.52 ± 0.31 µM, respectively.
`N#C[C@@]1(c2ccc3c(N)ncnn23)O[C@H](COP(=O)(O)OP(=O)(O)OP(=O)(O)O)[C@@H](O)[C@H]1O` [GS-443902]: the “Vmax (product fraction)” value in data set [10] is 0.96 ± 0.015 and 0.80 ± 0.021; in data set [11], 0.50 ± 0.012; in data set [12], 0.81 ± 0.013; in data set [13] it was 0.80 ± 0.059; in data set [14], 0.63 ± 0.010 and 0.78 ± 0.012; in [15] it was 0.18 ± 0.0057. The “Vmax (product fraction)” value was 0.29 ± 0.091 in data set [16]; 0.90 ± 0.012 in data set [17]; 0.67 ± 0.22 in [18]; 0.45 ± 0.0064 in [19]; 0.57 ± 0.045 and 0.53 ± 0.027 in data set [20]; 0.74 ± 0.023 in data set [21]. The “Vmax (product fraction)” value in [22] was 0.93 ± 0.027 and 0.93 ± 0.019; in [30], 0.88 ± 0.015; in data set [23] it was 0.70 ± 0.015; in data set [24], 0.35 ± 0.016; in data set [25], 0.77 ± 0.042 and 0.69 ± 0.013; in data set [26], 0.82 ± 0.027. Besides, the “Vmax (product fraction) … at i + 1” value in data set [3] is on record as 0.98 ± 0.018; in [5], 0.67 ± 0.015; in data set [29] it was 1.13 ± 0.047; in [6], 0.48 ± 0.005; in [7], 0.58 ± 0.011; in data set [8], 0.48 ± 0.0089. In [9], the “Vmax (product fraction) … at i + 1” value was 0.28 ± 0.018. In addition, the Km was 0.0063 ± 0.0006 µM in data set [11]; 21 ± 0.096 µM in data set [12]; 0.0089 ± 0.002 µM in [21] (setting [31]); 0.01 ± 0.0008 µM in data set [23]; 1.3 ± 0.18 µM in data set [24]; 0.5 ± 0.089 µM in data set [26]. In addition, the “Selectivity (fold), Vmax/Km ATP over Vmax/Km analog” value in data set [11] is 0.35 ^d fold; in [12] (h-mtRNAP, ref Tchesnokov et al. ([47])), 503 ^e fold; in data set [14], 7.20 fold; in [19] (FluB RdRp, ref Gordon et al. ([45])), 68 ^d fold; in data set [20] it was 6.7 fold and 6.71 fold; in [21] (setting [31]) it was 0.28 ^d fold. In addition, the “Selectivity (fold), Vmax/Km ATP over Vmax/Km analog” value is 0.32 ^d fold in [23]; 20 ^d fold in data set [24]; 8.3 fold and 8.31 fold in data set [25]; 2.7 fold and 2.73 ^e fold in data set [26] (RSV RdRp, ref Tchesnokov et al. ([47])). Moreover, the “Inhibition (fold) of UTP incorporation across embedded analog” value in [27] was approximately 16 fold. Further, the “Inhibition (fold) vs Template A” value in [28] is ~8 fold and 7.8 fold. The “UTP” value in data set [28] turned out to be 3.9 µM. The “Pattern of inhibition of RNA primer extension after incorporation at position i” value in data set [5], in [29] and in [6] was “intermediate product at position “i + 3”” in each case.
